Data set [1] deals with T1, soluble Aβ oligomers (Human A 1-42) (Homo sapiens, UniProt P05067).
T1 construct: Human A 1-42 (China Peptide); purchased China Peptide
Briefly: Aβ aggregation assay (bis-ANS): reversal of aggregation of soluble Aβ oligomers. The format is biochemical. The following applies: for EC50: Aβ oligomers induced with ZnSO4 (15 μM), bis-ANS fluorescence, compounds 0.1 to 120 μM for 30 min, pH 7.4, read-out: EC50 (μM), reversal of aggregation of soluble Aβ oligomers. The source says: 4,4(′)-dianilino-1,1(′)-binaphthyl-5,5(′)-disulfonate (bis-ANS, Sigma) was used to assess whether compounds could reverse the aggregation of soluble A oligomers. (See, e.g., LeVine, H., 3rd, (2002) 4,4(′)-Dianilino-1,1(′)-binaphthyl-5,5(′)-disulfonate: report on non-beta-sheet conformers of Alzheimer's peptide beta(1-40), Arch Biochem Biophys 404, 106; Chen, W. T. et al., (2011) Distinct effects of Zn^2+, Cu^2+, Fe^3+, and Al^3+ on amyloid-beta stability, oligomerization, and aggregation: amyloid-beta destabilization promotes annular protofibril formation, J Biol Chem 286, 9646) Human A 1-42 (China Peptide) was dissolved in DMSO (Sigma) to a stock concentration of 1.5 mM. A ([…]) oligomers were induced with ZnSO4 (15 μM) at 26° C. for 30 min in a buffer (pH 7.4) containing Tris (50 mM), NaCl (150 mM) and bis-ANS (10 μM). Compounds (0.1 to 120 μM) dissolved in DMSO (Sigma) were added for 30 min. CQ and PBT2 were used as positive controls. Endpoint fluorescence (excitation=390 nm, emission=490 nm) was measured with a Flex Station (Molecular Devices) fluorescent plate reader. At each concentration, Aβ fluorescence was normalized to background fluorescence and then expressed as a percentage of vehicle treated control samples. […] Data represents the mean of at least 9 replicates from 3 experiments.

The subject of the next data set is AD patients. The following applies: pilot phase II clinical trial, cited from earlier work.
Another data set has as its system SH-SY5Y cells. Briefly: Ionophore assay: cellular metal levels by ICP-MS. The format is cell-based. The following applies: 20 μM, 6 hours; for Cu uptake compared to 8HQ: FIG. 1; for Cu uptake, fold increase than that of PBT2: FIG. 3. On the procedure: Cells were maintained at 37° C. with 5% CO2 and passaged every 3-4 days. Compounds (10 mM) were solubilized in DMSO (Sigma). CQ and PBT2 were used as positive controls. Cells were treated with growth media supplemented with each compound ([…]) or vehicle for 6 hours. Cells were harvested and metal levels were measured with Inductively-Coupled Plasma Mass Spectrometry (Varian), as previously described. […] Data represents the mean and S.E.M. of at least 9 replicates from 3 experiments. A oneway ANVOA with Fisher's LSD test was used to determine statistical differences relative to control (Prism 6, Graphpad).
Dashed line indicates control level. SH-SY5Y cells treated were treated with each compound (20 μM) for 6 hours and cellular metal levels were measured with ICP-MS.
(§1) SH-SY5Y cells treated were treated with each compound (20 μM) for 6 hours and cellular metal levels were measured with ICP-MS. Dashed line indicates control level.
as §1

Data set [2] has as its system patients with Huntington's disease and patients with AD. The following applies: phase II clinical trials; cited from earlier work.

pEC50: −log10 of the molar value. Where two headings read alike, the source gives them in different places.

T1 sequence (P05067 672-713): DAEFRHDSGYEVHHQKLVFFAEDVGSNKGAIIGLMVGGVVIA

Usually EC50 stands for the concentration giving half of the maximal effect. As for `Oc1c(I)cc(Cl)c2cccnc12` [Clioquinol (CQ), 5-chloro-7-iodo-quinolin-8-ol], the concentration giving a half-maximal response (EC50) in data set [1] is 1.8 µM. The “rate of cognitive decline” value in the data set with AD patients (AD patients) is listed as “attenuated”. Also, the tolerability entry with AD patients is listed as “well tolerated”. What is called pEC50 is the negative decadic logarithm of the EC50, by convention in mol/L. With `Oc1cccc2ccc(F)nc12` [Compound 5], the pEC50 in data set [1] is below 3.92. Further, the “Cu uptake compared to 8HQ” value with SH-SY5Y cells is listed as “inferior to 8HQ”.

As for `Oc1cccc2cc(F)cnc12` [Compound 6], in the data set with SH-SY5Y cells, the “Cu uptake compared to 8HQ” value is “inferior to 8HQ”. As for `Oc1ccccc1/N=C/c1ccc(F)cc1` [Compound 10], the EC50 in data set [1] turned out to be 15.4 µM.

In the case of `Oc1c(F)cc(Cl)c2cccnc12` [Compound 12, 5-chloro-7-fluoro-8-hydroxyquinoline], in data set [1], the EC50 stood at 4.9 µM. The same measure, in the same setting: then `Oc1c(F)cc(Br)c2cccnc12` [Compound 13, 5-bromo-7-fluoro-8-hydroxyquinoline], with 3.5 µM. The same measure, in the same setting: for `Oc1c(F)cc(I)c2cccnc12` [Compound 14, 7-fluoro-5-iodo-8-hydroxyquinoline] the value was 2.3 µM; for `Oc1c(Cl)cc(F)c2cccnc12` [Compound 15, 7-chloro-5-fluoro-8-hydroxyquinoline], 5.2 µM; for `Oc1c(Br)cc(F)c2cccnc12` [Compound 16, 7-bromo-5-fluoro-8-hydroxyquinoline], 3.7 µM. For `Oc1c(I)cc(F)c2cccnc12` [Compound 17, 5-fluoro-7-iodo-8-hydroxyquinoline], the EC50 in data set [1] turned out to be 2.5 µM. Still for that read-out and setting: for `Oc1c(Cl)cc(Cl)c2ccc(COCCF)nc12` [Compound 23, 5,7-dichloro-2-((2-fluoroethoxy)methyl)quinolin-8-ol] the value was 2.4 µM; for `Oc1c(Cl)cc(Cl)c2ccc(COCCCCF)nc12` [Compound 24, 5,7-dichloro-2-((4-fluorobutoxy)methyl)quinolin-8-ol], 2 µM. In the case of `CN(Cc1cn(CCF)nn1)Cc1ccc2c(Cl)cc(Cl)c(O)c2n1` [Compound 28, 5,7-dichloro-2-((((1-(2-fluoroethyl)-1H-1,2,3-triazol-4-yl)methyl)(methyl)amino)methyl)quinolin-8-ol], the half-maximal effective concentration (EC50) in data set [1] worked out at 2.3 µM. Besides, in the data set on SH-SY5Y cells, the “Cu uptake, fold increase than that of PBT2” value is on record as 10 fold.

With `CN(Cc1cn(CCCF)nn1)Cc1ccc2c(Cl)cc(Cl)c(O)c2n1` [Compound 29, 5,7-dichloro-2-((((1-(3-fluoropropyl)-1H-1,2,3-triazol-4-yl)methyl)(methyl)amino)methyl)quinolin-8-ol], in data set [1], the EC50 is 4.5 µM. Besides, the “Cu uptake, fold increase than that of PBT2” value in the data set on SH-SY5Y cells was 16 fold. The like results for `CN(Cc1cn(CCCCF)nn1)Cc1ccc2c(Cl)cc(Cl)c(O)c2n1` [Compound 30, 5,7-dichloro-2-((((1-(4-fluorobutyl)-1H-1,2,3-triazol-4-yl)methyl)(methyl)amino)methyl)quinolin-8-ol] were, in that order, 2.8 µM and 8 fold. Take `CN(C)Cc1ccc2c(Cl)cc(Cl)c(O)c2n1` [PBT2, 5,7-Dichloro-2-((dimethylamino)methyl) 8-quinolinol, reference compound]: the EC50 in data set [1] was 2 µM. Also, in data set [2], the benefits in patients result was “shown benefits”.

The values are drawn from US11434203B2, “8-hydroxyquinoline derivatives as diagnostic and therapeutic agents” (The General Hospital Corporation, priority 2015, dated 2022).
